Measured values as given in patent publication US5246966A, “Substituted alkenoic acid and its derivatives” (Bayer Aktiengesellschaft, priority 1991, dated 1993).

Molecular target: T1, LTD4 receptor ([3H-LTD4] binding to guinea-pig lung membranes) (Cavia porcellus, UniProt Q2NNR5)
T1 construct: guinea-pig lung membranes; from tissue; host or cells: guinea-pig lung membranes
T1 sequence (Q2NNR5 1-340): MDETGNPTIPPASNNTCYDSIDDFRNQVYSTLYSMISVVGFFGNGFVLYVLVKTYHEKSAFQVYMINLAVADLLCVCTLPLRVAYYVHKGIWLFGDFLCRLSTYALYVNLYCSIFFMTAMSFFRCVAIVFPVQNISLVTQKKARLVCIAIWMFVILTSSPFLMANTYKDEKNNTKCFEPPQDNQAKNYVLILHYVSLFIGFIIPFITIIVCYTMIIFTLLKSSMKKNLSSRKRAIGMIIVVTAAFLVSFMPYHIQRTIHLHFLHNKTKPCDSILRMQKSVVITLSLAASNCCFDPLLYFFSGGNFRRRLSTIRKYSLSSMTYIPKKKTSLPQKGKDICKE
Assay: [3H]-LTD4 binding assay
Details: displacement of 0.8 nM 3H-LTD4 from guinea-pig lung membranes, 15 minutes at 20° C., pH 7.4; Cheng and Prusoff correction of IC50; read-out: pKi [3H-LTD4] (converted)
Method: To evaluate the pharmacological properties the receptor affinity of the compounds were determined by measuring its ability to displace [^3 H-LTD4 ] binding to guinea-pig lung membranes.
Test method: [^3 H]-LTD4 BINDING ASSAY
Increasing concentrations (between 10^-8 and 10^-5 M) of compounds of general formula I were incubated with 0.8 nM^3 H-LTD4 and guinea-pig lung membranes (100-150 μg protein) for 15 minutes at 20° C. in an assay buffer of 10 mM L-cysteine and 1% polypep in 50 mM Tris HCl at pH 7.4. Incubations (total volume 0.25 ml) were terminated by addition of ice-cold Tris HCl (pH 7.4) and rapidly filtered through Whatman GF/C filters which were washed twice with ice-cold buffer. All points were determined in triplicate.
The counts (dpm) bound to each filter were determined by liquid scintillation spectrometry. The amount bound in the presence of each concentration of test compound was compared to the amount of binding in the absence of test compound […] and to the amount bound in the presence of 2 μm LTD4. […]
Where 0.8 nM is the dissociation constant for ^3 H-LTD4 under these conditions and [^3 H-LTD4 ] is the precise concentration (in nM) employed in the assay (also determined by liquid scintillation counting).

## O=C(O)CC[C@@H](/C=C\Cc1ccc(OCCCCOc2ccccc2)cc1)Sc1ccc(C(=O)O)cc1 [Example No. 4, Z-[4S]-4-(4-Carboxyphenylthio)-7-[4-(4-phenoxybutoxy)-phenyl]-5-heptenoic acid]
  Ki: 31.6 nM
